Reference: US20040170685A1, “Bioactive stents and methods for use thereof” (MediVas, LLC, priority 2003, published 2004)

Tested on: human aortic smooth muscle cells (SMC)
Test: Adhesion and proliferation of smooth muscle cells on gelatin coated culture plates, microscopic observation
Assay type: cell-based
Details: bioagent 100? m
Excerpt: This Example illustrates the effect of different concentrations of bioactive agents on adhesion and proliferation of epithelial cells (EC) and smooth muscle cells (SMC) on gelatin coated surfaces.
Human Coronary artery endothelial cells (EC) plated on gelatin coated culture plates were co-cultured with EC special media containing one of the bioactive agents shown in Table 1 below in the various concentrations shown.
Twenty four hours later the cells were observed microscopically, stained with trypan blue and counted. The results of the microscopic observation of cell morphology and confluency of culturing the EC in the presence of the Bioagents tested are summarized in Table 2 below. The effect of the various bioagents on EC adhesion and proliferation is shown graphically in FIG. 2.
Effect of different concentrations of the bioagents listed above in Table 1 was also tested using human aortic smooth muscle cells (SMC) under similar conditions as described for EC. The results of the bioagents on adhesion and proliferation of SMC plated on gelatin coated culture plates are summarized in Table 3 below and shown graphically in FIG. 3.

CCCCCCCCCCCCC/C=C/[C@@H](O)[C@@H](N)COP(=O)(O)O [S1P, Sphingosine 1-Phosphate]
Microscopic observation for the SMC morphology and Confluency: 100% cells died
